Measurements taken from ChEMBL document CHEMBL3885861, “Open TG-GATES”.

Species on record: Rattus norvegicus
Assay: Open TG-GATES - Regimen: Daily Repeat
Format: toxicity, organism-based, Sprague-Dawley
Parameters: regimen Daily Repeat, gender Male, age 6 weeks
Conditions: in vivo, po, 30 mg/kg, route gavage, dose level Low; for APTT / Bas / Eos / Fbg / Hb / Ht / Lym / MCH / MCHC / MCV / Mono / Neu / PT / Plat / RBC / Ret / WBC: tissue Blood; for KIDNEY_L / KIDNEY_R / KIDNEY_TOTAL: tissue Kidney; for LIVER: tissue Liver; for A/G / ALP / ALT / AST / BUN / CRE / Ca / Cl / DBIL / GLC / IP / K / LDH / Na / PL / RALB / TBIL / TC / TG / TP / gamma-GTP: tissue Plasma

CCCNC(=O)NS(=O)(=O)c1ccc(Cl)cc1 [CHLORPROPAMIDE]
TERMINAL_BW (72 h, time 3 day): 215.3 g | APTT (72 h, time 3 day): 21.2 s | Bas (72 h, time 3 day): 0% | Eos (72 h, time 3 day): 1.2% | Fbg (72 h, time 3 day): 265 mg/dL | Hb (72 h, time 3 day): 13.2 g/dL | Ht (72 h, time 3 day): 39.6% | Lym (72 h, time 3 day): 80.6% | MCH (72 h, time 3 day): 21.1 pg | MCHC (72 h, time 3 day): 33.2% | MCV (72 h, time 3 day): 63.3 fL | Mono (72 h, time 3 day): 2.4% | Neu (72 h, time 3 day): 15% | PT (72 h, time 3 day): 15.8 s | Plat (72 h, time 3 day): 116.1 x10_4/uL | RBC (72 h, time 3 day): 626 x10_4/ul | Ret (72 h, time 3 day): 7% | WBC (72 h, time 3 day): 83.4 x10_2/uL | KIDNEY_L (72 h, time 3 day): 0.9 g | KIDNEY_R (72 h, time 3 day): 0.9 g | KIDNEY_TOTAL (72 h, time 3 day): 1.8 g | LIVER (72 h, time 3 day): 10.1 g | A/G (72 h, time 3 day): 0.9 | ALP (72 h, time 3 day): 1696 IU/L | ALT (72 h, time 3 day): 49.6 IU/L | AST (72 h, time 3 day): 73.2 IU/L | BUN (72 h, time 3 day): 17.8 mg/dL | CRE (72 h, time 3 day): 0.2 mg/dL | Ca (72 h, time 3 day): 10.6 mg/dL | Cl (72 h, time 3 day): 106 meq/L | DBIL (72 h, time 3 day): 0.01 mg/dL | GLC (72 h, time 3 day): 174 mg/dL | IP (72 h, time 3 day): 7.5 mg/dL | K (72 h, time 3 day): 4.1 meq/L | LDH (72 h, time 3 day): 80.8 IU/L | Na (72 h, time 3 day): 143.2 meq/L | PL (72 h, time 3 day): 151 mg/dL | RALB (72 h, time 3 day): 2.6 g/dL | TBIL (72 h, time 3 day): 0.024 mg/dL | TC (72 h, time 3 day): 78.8 mg/dL | TG (72 h, time 3 day): 108 mg/dL | TP (72 h, time 3 day): 5.7 g/dL | gamma-GTP (72 h, time 3 day): 1 IU/L | TERMINAL_BW ([…], time 7 day): 245.8 g | TERMINAL_BW ([…], time 14 day): 303 g | TERMINAL_BW ([…], time 28 day): 389 g | APTT ([…], time 7 day): 19.1 s | Bas ([…], time 7 day): 0% | Eos ([…], time 7 day): 1% | Fbg ([…], time 7 day): 284.8 mg/dL | Hb ([…], time 7 day): 13.7 g/dL | Ht ([…], time 7 day): 41.3% | Lym ([…], time 7 day): 79.6% | MCH ([…], time 7 day): 21.3 pg | MCHC ([…], time 7 day): 33.2% | MCV ([…], time 7 day): 64.2 fL | Mono ([…], time 7 day): 1.8% | Neu ([…], time 7 day): 16.2% | PT ([…], time 7 day): 15.5 s | Plat ([…], time 7 day): 127.7 x10_4/uL | RBC ([…], time 7 day): 643 x10_4/ul | Ret ([…], time 7 day): 5.9% | WBC ([…], time 7 day): 95.2 x10_2/uL | APTT ([…], time 14 day): 16.7 s | Bas ([…], time 14 day): 0% | Eos ([…], time 14 day): 0.8% | Fbg ([…], time 14 day): 263 mg/dL | Hb ([…], time 14 day): 14.3 g/dL | Ht ([…], time 14 day): 43.2% | Lym ([…], time 14 day): 79.6% | MCH ([…], time 14 day): 20.8 pg | MCHC ([…], time 14 day): 33.2% | MCV ([…], time 14 day): 62.7 fL | Mono ([…], time 14 day): 2.6% | Neu ([…], time 14 day): 15.6% | PT ([…], time 14 day): 16.1 s | Plat ([…], time 14 day): 107.2 x10_4/uL | RBC ([…], time 14 day): 688.6 x10_4/ul | Ret ([…], time 14 day): 4.6% | WBC ([…], time 14 day): 100.6 x10_2/uL | APTT ([…], time 28 day): 18.8 s | Bas ([…], time 28 day): 0% | Eos ([…], time 28 day): 1% | Fbg ([…], time 28 day): 296.4 mg/dL | Hb ([…], time 28 day): 14.9 g/dL | Ht ([…], time 28 day): 45.1% | Lym ([…], time 28 day): 78.8% | MCH ([…], time 28 day): 19.4 pg | MCHC ([…], time 28 day): 33% | MCV ([…], time 28 day): 58.9 fL | Mono ([…], time 28 day): 2.8% | Neu ([…], time 28 day): 16.2% | PT ([…], time 28 day): 16 s | Plat ([…], time 28 day): 106.6 x10_4/uL | RBC ([…], time 28 day): 766.6 x10_4/ul | Ret ([…], time 28 day): 2.5% | WBC ([…], time 28 day): 98 x10_2/uL | KIDNEY_L ([…], time 7 day): 1 g | KIDNEY_R ([…], time 7 day): 1 g | KIDNEY_TOTAL ([…], time 7 day): 2 g | KIDNEY_L ([…], time 14 day): 1.2 g | KIDNEY_R ([…], time 14 day): 1.2 g | KIDNEY_TOTAL ([…], time 14 day): 2.4 g | KIDNEY_L ([…], time 28 day): 1.4 g | KIDNEY_R ([…], time 28 day): 1.4 g | KIDNEY_TOTAL ([…], time 28 day): 2.8 g | LIVER ([…], time 7 day): 11.3 g | LIVER ([…], time 14 day): 13.3 g | LIVER ([…], time 28 day): 16.1 g | A/G ([…], time 7 day): 0.8 | ALP ([…], time 7 day): 1568.6 IU/L | ALT ([…], time 7 day): 42 IU/L | AST ([…], time 7 day): 66.8 IU/L | BUN ([…], time 7 day): 16.2 mg/dL | CRE ([…], time 7 day): 0.2 mg/dL | Ca ([…], time 7 day): 10.9 mg/dL | Cl ([…], time 7 day): 105.6 meq/L | DBIL ([…], time 7 day): 0.018 mg/dL | GLC ([…], time 7 day): 182.8 mg/dL | IP ([…], time 7 day): 7.4 mg/dL | K ([…], time 7 day): 3.9 meq/L | LDH ([…], time 7 day): 93.8 IU/L | Na ([…], time 7 day): 143.4 meq/L | PL ([…], time 7 day): 157.6 mg/dL | RALB ([…], time 7 day): 2.7 g/dL | TBIL ([…], time 7 day): 0.032 mg/dL | TC ([…], time 7 day): 76.4 mg/dL | TG ([…], time 7 day): 136.6 mg/dL | TP ([…], time 7 day): 5.8 g/dL | gamma-GTP ([…], time 7 day): 1 IU/L | A/G ([…], time 14 day): 0.8 | ALP ([…], time 14 day): 1602.6 IU/L | ALT ([…], time 14 day): 41.8 IU/L | AST ([…], time 14 day): 66.6 IU/L | BUN ([…], time 14 day): 18.6 mg/dL | CRE ([…], time 14 day): 0.2 mg/dL | Ca ([…], time 14 day): 10.6 mg/dL | Cl ([…], time 14 day): 103.6 meq/L | DBIL ([…], time 14 day): 0.012 mg/dL | GLC ([…], time 14 day): 204.8 mg/dL | IP ([…], time 14 day): 7.7 mg/dL | K ([…], time 14 day): 4 meq/L | LDH ([…], time 14 day): 123.6 IU/L | Na ([…], time 14 day): 142.6 meq/L | PL ([…], time 14 day): 155 mg/dL | RALB ([…], time 14 day): 2.6 g/dL | TBIL ([…], time 14 day): 0.028 mg/dL | TC ([…], time 14 day): 74.4 mg/dL | TG ([…], time 14 day): 143.8 mg/dL | TP ([…], time 14 day): 5.8 g/dL | gamma-GTP ([…], time 14 day): 0.8 IU/L | A/G ([…], time 28 day): 0.8 | ALP ([…], time 28 day): 1184 IU/L | ALT ([…], time 28 day): 39 IU/L | AST ([…], time 28 day): 64.8 IU/L | BUN ([…], time 28 day): 18.2 mg/dL | CRE ([…], time 28 day): 0.2 mg/dL | Ca ([…], time 28 day): 10.8 mg/dL | Cl ([…], time 28 day): 104.8 meq/L | DBIL ([…], time 28 day): 0.01 mg/dL | GLC ([…], time 28 day): 198.4 mg/dL | IP ([…], time 28 day): 6.7 mg/dL | K ([…], time 28 day): 3.6 meq/L | LDH ([…], time 28 day): 99.8 IU/L | Na ([…], time 28 day): 144.8 meq/L | PL ([…], time 28 day): 163.8 mg/dL | RALB ([…], time 28 day): 2.8 g/dL | TBIL ([…], time 28 day): 0.018 mg/dL | TC ([…], time 28 day): 77.8 mg/dL | TG ([…], time 28 day): 165.6 mg/dL | TP ([…], time 28 day): 6.2 g/dL | gamma-GTP ([…], time 28 day): 1.6 IU/L
